Laboratory results: the CheMixHub viscosity set

Assay: xn = mol fraction of the nth substance listed

CNC=O + CC(=O)O
viscosity [mPa·s], 100 kPa
Conditions	x1 = 0.1097	x1 = 0.183	x1 = 0.2628	x1 = 0.3502	x1 = 0.4802	x1 = 0.5897	x1 = 0.6693	x1 = 0.7549	x1 = 0.8961
303.15 K	1.044	1.086	1.132	1.183	1.259	1.324	1.372	1.426	1.517
308.15 K	0.9723	1.011	1.054	1.1	1.169	1.228	1.272	1.32	1.402
313.15 K	0.9175	0.9534	0.992	1.033	1.095	1.148	1.187	1.229	1.301
318.15 K	0.8728	0.9059	0.9409	0.978	1.033	1.08	1.114	1.151	1.213

CCOCCOCCOCC + ClC(Cl)Cl
298.15 K, 101 kPa
Conditions	viscosity [mPa·s]
x1 = 0.0089	0.538
x1 = 0.0178	0.56
x1 = 0.0263	0.579
x1 = 0.0446	0.62
x1 = 0.0878	0.723
x1 = 0.1473	0.862
x1 = 0.1744	0.916
x1 = 0.2224	1.012
x1 = 0.2736	1.108
x1 = 0.3402	1.194
x1 = 0.345	1.208
x1 = 0.3725	1.248
x1 = 0.4081	1.284
x1 = 0.4541	1.316
x1 = 0.509	1.341
x1 = 0.5754	1.353
x1 = 0.626	1.358
x1 = 0.6804	1.352
x1 = 0.7347	1.342
x1 = 0.7875	1.326
x1 = 0.8348	1.312
x1 = 0.8675	1.309
x1 = 0.9216	1.292
x1 = 0.9756	1.278

CC(C)c1cc(C(C)C)cc(C(C)C)c1 + CCCCCCCCCCCC
viscosity [mPa·s], 102 kPa
Conditions	x1 = 0.0997	x1 = 0.2002	x1 = 0.3009	x1 = 0.4002	x1 = 0.5003	x1 = 0.6001	x1 = 0.7001	x1 = 0.8002	x1 = 0.8999
293.15 K	1.57	1.67	1.8	1.94	2.14	2.37	2.67	3.05	3.51
303.15 K	1.31	1.39	1.48	1.59	1.73	1.89	2.09	2.35	2.66
313.15 K	1.11	1.17	1.24	1.32	1.42	1.54	1.69	1.86	2.08
323.15 K	0.956	1	1.05	1.12	1.19	1.28	1.39	1.52	1.67

C[N+](C)(C)CCO.O=C([O-])c1ccccn1 + O
300 K, 100 kPa
Conditions	viscosity [mPa·s]
x2 = 0.5	232.8
x2 = 0.68	35.3
x2 = 0.81	16.4

CCCCOCCO + CCCCCCC
viscosity [mPa·s], 101 kPa
Conditions	303.15 K	313.15 K
x1 = 0.0365	0.407	0.364
x1 = 0.1077	0.484	0.426
x1 = 0.2126	0.626	0.534
x1 = 0.316	0.799	0.661
x1 = 0.417	0.987	0.797
x1 = 0.5114	1.177	0.941
x1 = 0.6155	1.411	1.116
x1 = 0.7469	1.741	1.359
x1 = 0.845	2.011	1.55
x1 = 0.9057	2.162	1.654
x1 = 0.9663	2.306	1.784

CCCCOCCO + ClC(Cl)Cl
298.15 K, 101.3 kPa
Conditions	viscosity [mPa·s]
x1 = 0.0035	0.536
x1 = 0.0216	0.555
x1 = 0.0344	0.57
x1 = 0.0767	0.628
x1 = 0.1259	0.703
x1 = 0.2281	0.901
x1 = 0.2903	1.042
x1 = 0.3627	1.235
x1 = 0.4472	1.494
x1 = 0.5049	1.659
x1 = 0.5823	1.894
x1 = 0.6772	2.175
x1 = 0.7828	2.429
x1 = 0.8296	2.525
x1 = 0.9123	2.702
